In article PMC2386552, “Toward the Assessment of Food Toxicity for Celiac Patients: Characterization of Monoclonal Antibodies to a Main Immunogenic Gluten Peptide” (PLoS ONE, 2008):

Assays:
G12 moAb = assay: Indirect ELISA of C-LYTAG-peptide fusions (E. coli extracts) with moAb G12; format: binding; details: indirect ELISA of bacterial extracts containing the fusion peptides
Text: (§1) To determine the epitope recognized by the G12 and A1 moAb within the 33-mer peptide, fusions of the C-LYTAG coding sequence of the pALEXb plasmid (Biomedal S.L., Sevilla, Spain) were constructed with coding sequences of hepta- and octapeptides comprising the complete sequence of the 33-mer peptide (Figure 3A). The resulting plasmids were introduced by transformation into the REG1 strain of Escherichia coli, allowing for over-expression of the encoded fusion proteins upon induction (Biomedal S.L., Sevilla, Spain). The over-expressed bacterial extracts were analyzed by indirect ELISA using the anti-33-mer A1 and G12 moAbs. Similarly, the anti-C-LYTAG 6B5L1 moAb (Biomedal, S.L., Sevilla, Spain) was used to establish that the designed protein was expressed intact in all cases. […]
(§2) A Maxisorp microtiter plate (Nunc, Roskilde, Denmark) was coated overnight at 4°C with 100 µL/well of the appropriate antigen (C-LYTAG-33-mer protein, gliadin, hordein, secalin, avenin, oryzein, zein or soluble protein extracts containing peptide fusions) serially diluted with 0.1 M of Na2CO3-NaHCO3 (pH 9.6). […] Absorbance at 450 nm was measured in the microplate reader UVM340 (Asys Hitech GmbH, Eugendorf, Austria).

A1 moAb = assay: Indirect ELISA of C-LYTAG-peptide fusions (E. coli extracts) with moAb A1; format: binding; details: indirect ELISA of bacterial extracts containing the fusion peptides
Text: as §1, §2

Substance	signal with G12 moAb (G12 moAb)	signal with A1 moAb (A1 moAb)
PQPQLPY [Pro63-Tyr69, C-LYTAG fusion peptide PQPQLPY expressed in E. coli]	positive signal	–
QLPYPQP [Gln66-Pro72, C-LYTAG fusion peptide QLPYPQP expressed in E. coli]	–	positive signal
QPQLPYP [Gln64-Pro70, C-LYTAG fusion peptide QPQLPYP expressed in E. coli]	positive signal	–
